Test results published in PMC3507948, “Origin and Evolution of Retinoid Isomerization Machinery in Vertebrate Visual Cycle: Hint from Jawless Vertebrates” (PLoS ONE, 2012).

Assays:
Assay type in all cases: cell-based
Lamprey RPE65 = target: T1, Lamprey RPE65 (Petromyzon marinus, UniProt L0ATZ0); experiment: HEK293-F minimal visual cycle assay, normal-phase HPLC of saponified retinoids; conditions: co-expressed lamprey LRATb or bovine LRAT and bovine CRALBP; 2.5 µM all-trans retinol fed for 5 h; direct substrate is the retinyl ester formed in the cells
T1 construct: pVITRO2 with bovine CRALBP, expressed in HEK293-F cells with LRAT
T1 sequence (L0ATZ0 1-537): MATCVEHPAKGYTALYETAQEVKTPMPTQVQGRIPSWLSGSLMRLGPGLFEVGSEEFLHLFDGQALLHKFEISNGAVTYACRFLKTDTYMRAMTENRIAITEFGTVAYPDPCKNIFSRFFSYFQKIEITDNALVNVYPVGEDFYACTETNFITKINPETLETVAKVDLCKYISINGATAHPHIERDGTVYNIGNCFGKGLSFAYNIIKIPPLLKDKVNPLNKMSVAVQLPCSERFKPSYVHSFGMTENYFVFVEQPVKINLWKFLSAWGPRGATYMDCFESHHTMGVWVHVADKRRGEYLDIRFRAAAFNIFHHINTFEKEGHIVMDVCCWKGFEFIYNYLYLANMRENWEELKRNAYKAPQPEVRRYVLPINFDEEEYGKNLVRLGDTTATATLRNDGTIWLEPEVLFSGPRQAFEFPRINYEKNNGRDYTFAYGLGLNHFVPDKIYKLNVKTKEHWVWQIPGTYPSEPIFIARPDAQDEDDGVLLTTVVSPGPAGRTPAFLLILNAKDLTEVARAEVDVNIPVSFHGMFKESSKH

Lamprey LRATb = target: T2, Lamprey LRATb (Petromyzon marinus, UniProt A0AAJ7TIF3); experiment: retinol esterification in HEK293-F cells, HPLC, retinyl esters as % of total retinoids; conditions: with 50 µM A922500 to block endogenous DGAT1; all-trans retinol added to cells
T2 construct: gene LOC116947134; full-length ORF cloned from adult female lamprey RPE (852 bp PCR product), 7-glycine tract at aa 160-166; pVITRO3, expressed in HEK293-F cells
T2 sequence (A0AAJ7TIF3 1-274): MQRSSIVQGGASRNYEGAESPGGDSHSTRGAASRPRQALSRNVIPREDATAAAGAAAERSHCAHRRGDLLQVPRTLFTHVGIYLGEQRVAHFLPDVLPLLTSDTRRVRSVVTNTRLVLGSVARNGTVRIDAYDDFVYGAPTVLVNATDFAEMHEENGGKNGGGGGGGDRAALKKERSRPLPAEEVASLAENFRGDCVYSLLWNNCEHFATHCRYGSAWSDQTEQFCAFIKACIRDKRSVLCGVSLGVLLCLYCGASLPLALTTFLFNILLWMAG

[1] = target: T3, Ciona BCMOb (Ci-BCMO1; ci-BCO) (Ciona intestinalis, UniProt Q2PE72); experiment: lycopene loss in lycopene-accumulating E. coli, reverse-phase HPLC; conditions: arabinose induction; no retinal detected; printed as β-carotene or lycopene
T3 construct: expressed in carotenoid-accumulating E. coli
T3 sequence (Q2PE72 1-524): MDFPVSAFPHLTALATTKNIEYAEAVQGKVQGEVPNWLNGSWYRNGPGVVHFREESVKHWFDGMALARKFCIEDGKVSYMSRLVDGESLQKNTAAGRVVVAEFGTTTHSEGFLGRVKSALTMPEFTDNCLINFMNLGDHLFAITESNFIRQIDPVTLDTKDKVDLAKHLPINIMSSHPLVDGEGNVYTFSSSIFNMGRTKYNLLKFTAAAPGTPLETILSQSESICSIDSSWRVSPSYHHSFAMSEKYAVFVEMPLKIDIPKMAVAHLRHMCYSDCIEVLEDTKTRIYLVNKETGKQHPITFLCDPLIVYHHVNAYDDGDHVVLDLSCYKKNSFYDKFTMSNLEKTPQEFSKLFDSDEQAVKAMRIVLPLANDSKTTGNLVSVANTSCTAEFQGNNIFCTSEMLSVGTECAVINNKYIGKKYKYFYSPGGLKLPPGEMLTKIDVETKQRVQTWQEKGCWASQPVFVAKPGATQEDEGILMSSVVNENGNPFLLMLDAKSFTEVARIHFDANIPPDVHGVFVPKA

Ciona BCMOa (Ci-RPE65) [2] = target: T4, Ciona BCMOa (Ci-RPE65) (Ciona intestinalis, UniProt Q2PE71); experiment: as above; conditions: arabinose induction, 18 h; no retinal detected; data not shown
T4 construct: ORF from synthetic pUC57/ciBCMOa (Genscript), cloned in pBadTOPO, expressed in carotenoid-accumulating E. coli
T4 sequence (Q2PE71 1-553): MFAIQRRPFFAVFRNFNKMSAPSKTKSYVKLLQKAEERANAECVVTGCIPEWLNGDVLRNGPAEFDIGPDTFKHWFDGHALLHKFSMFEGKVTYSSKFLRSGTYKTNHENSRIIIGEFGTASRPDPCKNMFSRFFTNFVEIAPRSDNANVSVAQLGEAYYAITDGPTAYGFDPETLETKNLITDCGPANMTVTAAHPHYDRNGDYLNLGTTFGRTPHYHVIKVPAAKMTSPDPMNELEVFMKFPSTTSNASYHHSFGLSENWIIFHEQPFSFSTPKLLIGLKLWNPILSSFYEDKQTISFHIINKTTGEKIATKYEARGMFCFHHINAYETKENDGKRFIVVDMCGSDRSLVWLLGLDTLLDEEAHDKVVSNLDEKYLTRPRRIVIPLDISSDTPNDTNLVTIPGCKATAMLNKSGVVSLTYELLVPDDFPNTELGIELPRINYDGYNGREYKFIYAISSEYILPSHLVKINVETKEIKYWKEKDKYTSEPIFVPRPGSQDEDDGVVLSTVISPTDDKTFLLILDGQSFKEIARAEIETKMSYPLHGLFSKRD

[3] = target: T3, Ciona BCMOb (Ci-BCMO1; ci-BCO); experiment: β-carotene loss in β-carotene-accumulating E. coli, reverse-phase HPLC; conditions: arabinose induction; no retinal detected
Ciona BCMOa (Ci-RPE65) [4] = target: T4, Ciona BCMOa (Ci-RPE65); experiment: as above; conditions: arabinose induction, 18 h; no retinal detected

`CC1=C(/C=C/C(C)=C/C=C\C(C)=C\CO)C(C)(C)CCC1` [11-cis retinol] was tested, and the “HEK293-F minimal visual cycle assay, normal-phase HPLC of saponified retinoids” value (Lamprey RPE65) was “Cells transfected with lamprey RPE65 and lamprey LRATb were also able to produce 11-cis retinol”.
`CC1=C(/C=C/C(C)=C/C=C/C(C)=C/CO)C(C)(C)CCC1` [all-trans retinol] was tested, and the “retinol esterification in HEK293-F cells, HPLC, retinyl esters as % of total ret” value (Lamprey LRATb) was “Catalytic activity of Lamprey LRATb in HEK293F cells in the presence of specific DGAT1 inhibitor”.
`CC(C)=CCC/C(C)=C/C=C/C(C)=C/C=C/C(C)=C/C=C/C=C(C)/C=C/C=C(C)/C=C/C=C(\C)CCC=C(C)C` [lycopene] was tested, and the “lycopene loss in lycopene-accumulating E. coli, reverse-phase HPLC” value [1] was “Quantification of β-carotene or lycopene in induced cell culture transformed with Ciona BCMOb (ci-BCO)” and the “lycopene loss in lycopene-accumulating E. coli, reverse-phase HPLC” value (Ciona BCMOa (Ci-RPE65) [2]) was “the amount of lycopene (data not shown) or β-carotene in induced cells decreased significantly”.
In the case of `CC1=C(/C=C/C(C)=C/C=C/C(C)=C/C=C/C=C(C)/C=C/C=C(C)/C=C/C2=C(C)CCCC2(C)C)C(C)(C)CCC1` [β-carotene], the “β-carotene loss in β-carotene-accumulating E. coli, reverse-phase HPLC” value [3] is reported as “Ciona BCMOb (ci-BCO) also demonstrated significant carotenoid cleavage activity” and the “β-carotene loss in β-carotene-accumulating E. coli, reverse-phase HPLC” value (Ciona BCMOa (Ci-RPE65) [4]) is reported as “the amount of lycopene (data not shown) or β-carotene in induced cells decreased significantly”.
